Blank lines part the entries; values can stand above or below the compound they belong to.
Key:
[1] = molecular target: T1, mGlu4 (Rattus norvegicus, UniProt P31423); experiment: mGlu4 competitive binding assay against [3H]ML128; conditions: 10 nM compound
[2] = molecular target: T1, mGlu4; experiment: Co-operative assay: enhancement of [3H]3 binding by orthosteric agonists
[3] = molecular target: T1, mGlu4; experiment: Ion dependency of [3H]3 binding; conditions: 10 nM [3H]3, 30 μM L-AP4, Hepes buffer with or without NaCl, MgCl2, KCl, CaCl2
[4] = molecular target: T1, mGlu4; experiment: Temperature dependency of [3H]3 binding; conditions: 10 nM [3H]3, 100 nM Glu, 30 min

T1 sequence (P31423 33-912): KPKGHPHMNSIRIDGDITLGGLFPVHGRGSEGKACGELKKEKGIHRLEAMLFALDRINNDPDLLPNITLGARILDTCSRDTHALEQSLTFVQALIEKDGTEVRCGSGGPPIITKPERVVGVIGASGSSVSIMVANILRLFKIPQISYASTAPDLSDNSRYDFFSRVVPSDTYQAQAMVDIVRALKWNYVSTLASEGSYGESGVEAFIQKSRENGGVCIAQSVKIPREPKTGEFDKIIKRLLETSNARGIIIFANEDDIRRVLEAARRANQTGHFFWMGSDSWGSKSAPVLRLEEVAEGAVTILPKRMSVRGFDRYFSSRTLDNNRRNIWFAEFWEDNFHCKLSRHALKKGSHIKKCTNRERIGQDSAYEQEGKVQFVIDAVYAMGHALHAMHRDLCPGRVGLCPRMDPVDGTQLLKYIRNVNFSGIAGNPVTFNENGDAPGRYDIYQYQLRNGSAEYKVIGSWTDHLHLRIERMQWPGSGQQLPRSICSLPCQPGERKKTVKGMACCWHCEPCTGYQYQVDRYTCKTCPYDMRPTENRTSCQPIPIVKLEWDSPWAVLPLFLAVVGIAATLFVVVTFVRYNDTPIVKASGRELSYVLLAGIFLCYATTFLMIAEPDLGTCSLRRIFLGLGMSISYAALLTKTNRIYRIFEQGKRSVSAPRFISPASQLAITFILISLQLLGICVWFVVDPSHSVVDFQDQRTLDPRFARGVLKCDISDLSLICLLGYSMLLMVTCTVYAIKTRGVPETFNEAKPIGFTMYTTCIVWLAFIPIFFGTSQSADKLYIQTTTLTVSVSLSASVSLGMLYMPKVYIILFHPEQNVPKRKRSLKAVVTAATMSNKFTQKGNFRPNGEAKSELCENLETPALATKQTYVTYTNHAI

bound fraction of [3H]3, single concentration assay ([1]; higher glutamate concentration, n=9, SE 1.2): 21.4% | bound fraction of [3H]3, single concentration assay ([1]; lower glutamate concentration, n=9, SE 1.4): 35.4%
Compound: O=C(Nc1ccc(N2C(=O)c3cccc(F)c3C2=O)c(Cl)c1)c1ccccn1 [compound 4, N-(3-Chloro-4-(4-fluoro-1,3-dioxo-isoindolin-2-yl)phenyl)-2-picolinamide]

Compound: N[C@@H](CCC(=O)O)C(=O)O [compound 1, L-Glutamate acid]
EC50 [2]: 0.832 µM

ion dependency of specific binding [3]: related to chloride ion | total amount of specific binding at +4 °C and +25 °C [4]: quite similar at +4 °C and +25 °C | specific binding at higher temperature (+45 °C) ([4]; +45 °C): drops the specific binding
Compound: COc1cc(NC(=O)c2ccccn2)ccc1Cl [[^3H]3, N-(4-Chloro-3-methoxyphenyl)-2-picolinamide]

Compound: NC(CCP(=O)(O)O)C(=O)O [compound 2, L-AP4]
logEC50 (enhancement of [3H]3 binding by orthosteric agonist) ([2]; 10 nM [3H]3, CHO cells expressing mGlu4, 30 min room temperature, n=3): −6.67 (SE 0.05)
